Reference: ChEMBL document CHEMBL1201862, “PubChem BioAssay data set” (2004)
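Briefly, cells in 96-well plates were exposed to five compound concentrations for 48 h, and endpoints were estimated by linear interpolation. Here, GI50 denotes the concentration required for 50% inhibition of growth.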 Calls of active or inactive are those of the source. Rule as the data show it: active = GI50 up to about 1.1 µM and inactive = higher.

What was measured:
Experiment in all cases: NCI-60 cell line screen, 48 h
MOLT-4 = test system: MOLT-4
CCRF-CEM = test system: CCRF-CEM
786-0 = test system: 786-0
NCI/ADR-RES = test system: NCI/ADR-RES
EKVX = test system: EKVX
SK-MEL-2 = test system: SK-MEL-2
ACHN = test system: ACHN
KM12 = test system: KM12
LOX IMVI = test system: LOX IMVI
SN12C = test system: SN12C
SK-MEL-28 = test system: SK-MEL-28
PC-3 = test system: PC-3
SR = test system: SR
HL-60 = test system: HL-60
UO-31 = test system: UO-31
OVCAR-5 = test system: OVCAR-5
RPMI-8226 = test system: RPMI-8226
UACC-257 = test system: UACC-257
NCI-H23 = test system: NCI-H23
HCT-15 = test system: HCT-15
A498 = test system: A498
SF-539 = test system: SF-539
NCI-H460 = test system: NCI-H460
Hs-578T = test system: Hs-578T
HOP-62 = test system: HOP-62
DU-145 = test system: DU-145
BT-549 = test system: BT-549
HCT-116 = test system: HCT-116
A549 = test system: A549
SF-268 = test system: SF-268
SW-620 = test system: SW-620
MCF7 = test system: MCF7
U-251 = test system: U-251
OVCAR-3 = test system: OVCAR-3
CAKI-1 = test system: CAKI-1
HT-29 = test system: HT-29
SK-MEL-5 = test system: SK-MEL-5
M14 = test system: M14
SF-295 = test system: SF-295
NCI-H522 = test system: NCI-H522
UACC-62 = test system: UACC-62
OVCAR-4 = test system: OVCAR-4
OVCAR-8 = test system: OVCAR-8
COLO 205 = test system: COLO 205
HOP-92 = test system: HOP-92
SNB-75 = test system: SNB-75
SNB-19 = test system: SNB-19
MDA-N = test system: MDA-N
Malme-3M = test system: Malme-3M
TK-10 = test system: TK-10
MDA-MB-435 = test system: MDA-MB-435
IGROV-1 = test system: IGROV-1
MDA-MB-231 = test system: MDA-MB-231
HCC 2998 = test system: HCC 2998
T47D = test system: T47D
K562 = test system: K562
SK-OV-3 = test system: SK-OV-3
NCI-H226 = test system: NCI-H226
RXF 393 = test system: RXF 393

N#Cc1ccc(OCc2ccc3nc(-c4ccccc4)c(Cl)nc3c2)cc1
GI50 (MOLT-4): > 100 µM (inactive)
GI50 (CCRF-CEM): > 100 µM (inactive)
GI50 (786-0): 54 µM (inactive)
GI50 (NCI/ADR-RES): > 100 µM (inactive)
GI50 (EKVX): > 100 µM (inactive)
GI50 (SK-MEL-2): > 100 µM (inactive)
GI50 (ACHN): 43.6 µM (inactive)
GI50 (KM12): > 100 µM (inactive)
GI50 (LOX IMVI): > 100 µM (inactive)
GI50 (SN12C): > 100 µM (inactive)
GI50 (SK-MEL-28): > 100 µM (inactive)
GI50 (PC-3): > 100 µM (inactive)
GI50 (SR): > 100 µM (inactive)
GI50 (HL-60): > 100 µM (inactive)
GI50 (UO-31): > 100 µM (inactive)
GI50 (OVCAR-5): > 100 µM (inactive)
GI50 (RPMI-8226): > 100 µM (inactive)
GI50 (UACC-257): > 100 µM (inactive)
GI50 (NCI-H23): > 100 µM (inactive)
GI50 (HCT-15): > 100 µM
GI50 (A498): > 100 µM (inactive)
GI50 (SF-539): > 100 µM (inactive)
GI50 (NCI-H460): > 100 µM (inactive)
GI50 (Hs-578T): > 100 µM (inactive)
GI50 (HOP-62): 42.7 µM (inactive)
GI50 (DU-145): > 100 µM (inactive)
GI50 (BT-549): > 100 µM (inactive)
GI50 (HCT-116): > 100 µM (inactive)
GI50 (A549): > 100 µM (inactive)
GI50 (SF-268): > 100 µM (inactive)
GI50 (SW-620): > 100 µM (inactive)
GI50 (MCF7): > 100 µM (inactive)
GI50 (U-251): 72.1 µM (inactive)
GI50 (OVCAR-3): > 100 µM (inactive)
GI50 (CAKI-1): > 100 µM (inactive)
GI50 (HT-29): > 100 µM (inactive)
GI50 (SK-MEL-5): > 100 µM (inactive)
GI50 (M14): > 100 µM (inactive)
GI50 (SF-295): > 100 µM (inactive)
GI50 (NCI-H522): > 100 µM (inactive)
GI50 (UACC-62): > 100 µM (inactive)
GI50 (OVCAR-4): > 100 µM (inactive)
GI50 (OVCAR-8): > 100 µM (inactive)
GI50 (COLO 205): > 100 µM (inactive)
GI50 (HOP-92): > 100 µM (inactive)
GI50 (SNB-75): > 100 µM (inactive)
GI50 (SNB-19): > 100 µM (inactive)
GI50 (MDA-N): > 100 µM (inactive)
GI50 (Malme-3M): > 100 µM (inactive)
GI50 (TK-10): 58.1 µM (inactive)
GI50 (MDA-MB-435): > 100 µM (inactive)
GI50 (IGROV-1): > 100 µM (inactive)
GI50 (MDA-MB-231): > 100 µM (inactive)
GI50 (HCC 2998): > 100 µM (inactive)
GI50 (T47D): > 100 µM (inactive)

NC(=O)c1nnc2ccc(F)cc2c1N
GI50 (MOLT-4): > 100 µM (inactive)
GI50 (CCRF-CEM): > 100 µM (inactive)
GI50 (786-0): > 100 µM (inactive)
GI50 (NCI/ADR-RES): > 100 µM (inactive)
GI50 (EKVX): > 100 µM (inactive)
GI50 (K562): > 100 µM (inactive)
GI50 (SK-MEL-2): > 100 µM (inactive)
GI50 (ACHN): 88.9 µM (inactive)
GI50 (KM12): > 100 µM (inactive)
GI50 (LOX IMVI): 69 µM (inactive)
GI50 (SN12C): > 100 µM (inactive)
GI50 (PC-3): > 100 µM (inactive)
GI50 (SR): > 100 µM (inactive)
GI50 (HL-60): > 100 µM (inactive)
GI50 (UO-31): 40.3 µM (inactive)
GI50 (OVCAR-5): 70 µM (inactive)
GI50 (RPMI-8226): > 100 µM (inactive)
GI50 (UACC-257): > 100 µM (inactive)
GI50 (NCI-H23): > 100 µM (inactive)
GI50 (SK-OV-3): 87.5 µM (inactive)
GI50 (HCT-15): > 100 µM
GI50 (A498): > 100 µM (inactive)
GI50 (SF-539): > 100 µM (inactive)
GI50 (NCI-H460): > 100 µM (inactive)
GI50 (Hs-578T): > 100 µM (inactive)
GI50 (HOP-62): > 100 µM (inactive)
GI50 (DU-145): > 100 µM (inactive)
GI50 (BT-549): 68.4 µM (inactive)
GI50 (HCT-116): > 100 µM (inactive)
GI50 (A549): > 100 µM (inactive)
GI50 (SF-268): > 100 µM (inactive)
GI50 (SW-620): > 100 µM (inactive)
GI50 (MCF7): > 100 µM (inactive)
GI50 (U-251): > 100 µM (inactive)
GI50 (OVCAR-3): > 100 µM (inactive)
GI50 (CAKI-1): > 100 µM (inactive)
GI50 (HT-29): > 100 µM (inactive)
GI50 (SK-MEL-5): > 100 µM (inactive)
GI50 (M14): > 100 µM (inactive)
GI50 (SF-295): > 100 µM (inactive)
GI50 (NCI-H522): 94.6 µM (inactive)
GI50 (UACC-62): > 100 µM (inactive)
GI50 (OVCAR-4): > 100 µM (inactive)
GI50 (OVCAR-8): > 100 µM (inactive)
GI50 (COLO 205): > 100 µM (inactive)
GI50 (SNB-75): > 100 µM (inactive)
GI50 (SNB-19): > 100 µM (inactive)
GI50 (MDA-N): > 100 µM (inactive)
GI50 (Malme-3M): > 100 µM (inactive)
GI50 (TK-10): 68.7 µM (inactive)
GI50 (MDA-MB-435): > 100 µM (inactive)
GI50 (IGROV-1): > 100 µM (inactive)
GI50 (MDA-MB-231): > 100 µM (inactive)
GI50 (NCI-H226): 7.57 µM (inactive)
GI50 (HCC 2998): > 100 µM (inactive)
GI50 (T47D): > 100 µM (inactive)

CCCc1nc2c(n1CC)C(=O)c1ccccc1C2=O
GI50 (MOLT-4): 17 µM (inactive)
GI50 (CCRF-CEM): 24.5 µM (inactive)
GI50 (786-0): > 100 µM (inactive)
GI50 (NCI/ADR-RES): 26.2 µM (inactive)
GI50 (K562): 31.1 µM (inactive)
GI50 (ACHN): 40.3 µM (inactive)
GI50 (KM12): 40.3 µM (inactive)
GI50 (SN12C): 30.5 µM (inactive)
GI50 (SK-MEL-28): 82.2 µM (inactive)
GI50 (PC-3): 34.2 µM (inactive)
GI50 (SR): 42.3 µM (inactive)
GI50 (HL-60): 44.4 µM (inactive)
GI50 (OVCAR-5): > 100 µM (inactive)
GI50 (RPMI-8226): 31.3 µM (inactive)
GI50 (UACC-257): 18 µM (inactive)
GI50 (NCI-H23): 39.4 µM (inactive)
GI50 (SK-OV-3): 21.7 µM (inactive)
GI50 (HCT-15): 28.3 µM
GI50 (RXF 393): 26.9 µM (inactive)
GI50 (SF-539): 63.5 µM (inactive)
GI50 (NCI-H460): 37.2 µM (inactive)
GI50 (Hs-578T): > 100 µM (inactive)
GI50 (HOP-62): > 100 µM (inactive)
GI50 (DU-145): 74.5 µM (inactive)
GI50 (BT-549): 79.8 µM (inactive)
GI50 (HCT-116): 39.3 µM (inactive)
GI50 (A549): 46.5 µM (inactive)
GI50 (SF-268): 45.5 µM (inactive)
GI50 (SW-620): 39.1 µM (inactive)
GI50 (MCF7): 51.1 µM (inactive)
GI50 (U-251): 59.3 µM (inactive)
GI50 (OVCAR-3): 32.5 µM (inactive)
GI50 (HT-29): 18.5 µM (inactive)
GI50 (SK-MEL-5): 29.8 µM (inactive)
GI50 (M14): 33.2 µM (inactive)
GI50 (SF-295): 56 µM (inactive)
GI50 (NCI-H522): 24.3 µM (inactive)
GI50 (UACC-62): 26 µM (inactive)
GI50 (OVCAR-4): 32.1 µM (inactive)
GI50 (COLO 205): 35.5 µM (inactive)
GI50 (HOP-92): > 10 µM (inactive)
GI50 (SNB-75): 24.8 µM (inactive)
GI50 (SNB-19): 86.9 µM (inactive)
GI50 (MDA-N): 20 µM (inactive)
GI50 (Malme-3M): 22.2 µM (inactive)
GI50 (TK-10): 66.1 µM (inactive)
GI50 (MDA-MB-435): 17.5 µM (inactive)
GI50 (IGROV-1): 27 µM (inactive)
GI50 (MDA-MB-231): 79.6 µM (inactive)
GI50 (NCI-H226): 56 µM (inactive)
GI50 (HCC 2998): 30.8 µM (inactive)
GI50 (T47D): 28.5 µM (inactive)
